Values quoted from earlier work in article PMC2605181 (Nature chemical biology, 2008).

What was measured:
MAGL = settings: cited from earlier work
[1] = cited from earlier work

## CCCCC/C=C\C/C=C\C/C=C\C/C=C\CCCCN1C(=O)C=CC1=O [NAM]
MAGL
  selectivity for MAGL over FAAH and other serine hydrolases: some selectivity
[1]
  potentiation of pharmacological effects of 2-AG in vivo: potentiate the pharmacological effects of 2-AG
